Source: patent US4137313A, “2,5-Dihydro-1,2-thiazino(5,6-b)indole-3-carboxamide-1,1-dioxides and salts thereof” (Boehringer Ingelheim GmbH, priority 1977, dated 1979)

Key:
[1] = test system: platelet aggregation in platelet-enriched plasma of healthy humans; assay: BORN-Test, collagen-induced platelet aggregation; type: cell-based; conditions: Homo sapiens, vs control, read-out: % decrease in aggregation; for inhibition at 20 µM: 2 × 10^-5 Mol/liter; for inhibition at 2 µM: 2 × 10^-6 Mol/liter; for inhibition at 100 µM: 1 × 10^-4 Mol/liter; for inhibition at 10 µM: 1 × 10^-5 Mol/liter
Protocol: (a) BORN-Test, Collagen-Induced Aggregation
The platelet aggregation was measured according to the method of BORN and CROSS (J. Physiol. 170, pp. 397 [1964]) in platelet-enriched plasma of healthy humans. The decrease in the optical density of the platelet suspension after addition of collagen was measured and registered photometrically. From the angle of inclination of the density curve the rate of aggregation can be determined. […] The quantity of collagen was chosen so that it produced an irreversible control curve.
The indicated values refer to the optical density and signify the percentage change in the light transmission (=% decrease in aggregation) under the influence of the test compound in comparision to the control.
Commercial collagen manufactured by Hormon-Chemie, Munich, Germany, was used.

male and female mice = assay: Determination of acute toxicity, oral administration; type: in vivo; conditions: 1 000 mgm/kg oral, 10 mice; for Dead animals within observation period 1 day: within 1 day; for Dead animals within observation period 7 days: within 7 days; for Dead animals within observation period 14 days: within 14 days
Protocol: (b) Determination of Acute Toxicity
The acute toxicity was determined in male and female mice after oral administration of the test compound as a suspension in tylose.

SMILES | inhibition at 20 µM [1] [%] | inhibition at 2 µM [1] [%] | inhibition at 100 µM [1] [%] | inhibition at 10 µM [1] [%] | inhibition at 1 µM ([1]; 1 × 10^-6 Mol/liter) [%] | Dead animals within observation period 1 day (male and female mice) | Dead animals within observation period 7 days (male and female mice) | Dead animals within observation period 14 days (male and female mice) | inhibition at 0.2 µM ([1]; 2 × 10^-7 Mol/liter) [%] | inhibition at 50 µM ([1]; 5 × 10^-5 Mol/liter) [%] | inhibition at 5 µM ([1]; 5 × 10^-6 Mol/liter) [%]
Cc1nc(NC(=O)C2=C(O)c3c(c4ccccc4n3C)S(=O)(=O)N2C)sc1C [C, 2,5-dihydro-2,5-dimethyl-N-(4,5-dimethyl-2-thiazolyl)-4-hydroxy-1,2-thiazino[5,6-b]indole-3-carboxamide-1,1-dioxide] | 89 | 82 |  |  |  |  |  |  |  |  | 
COc1ccc2c(c1)c1c(n2C)C(O)=C(C(=O)Nc2ccccn2)N(C)S1(=O)=O [F, 2,5-dihydro-2,5-dimethyl-4-hydroxy-8-methoxy-N-(2-pyridyl)-1,2-thiazino[5,6-b]indole-3-carboxamide-1,1-dioxide] |  |  | 85 | 43 |  |  |  |  |  |  | 
CN1C(C(=O)Nc2nccs2)=C(O)c2c(c3cc(Cl)ccc3n2C)S1(=O)=O [E, 8-chloro-2,5-dihydro-2,5-dimethyl-4-hydroxy-N-(2-thiazolyl)-1,2-thiazino[5,6-b]indole-3-carboxamide-1,1-dioxide] |  |  | 100 | 86 | 27 | 0 | 0 | 0 |  |  | 
Cc1csc(NC(=O)C2=C(O)c3c(c4ccccc4n3C)S(=O)(=O)N2C)n1 [B, 2,5-dihydro-2,5-dimethyl-4-hydroxy-N-(4-methyl-2-thiazolyl)-1,2-thiazino[5,6-b]indole-3-carboxamide-1,1-dioxide] | 100 | 97 |  |  |  | 0 | 0 | 0 | 42 |  | 
Cc1cccc(NC(=O)C2=C(O)c3c(c4ccccc4n3C)S(=O)(=O)N2C)n1 [D, 2,5-dihydro-2,5-dimethyl-4-hydroxy-N-(6-methyl-2-pyridyl)-1,2-thiazino[5,6-b]indole-3-carboxamide-1,1-dioxide] |  |  |  |  |  | 0 | 0 | 0 |  | 86 | 60
CN1C(C(=O)Nc2nccs2)=C(O)c2c(c3ccccc3n2C)S1(=O)=O [A, 2,5-dihydro-2,5-dimethyl-4-hydroxy-N-(2-thiazolyl)-1,2-thiazino[5,6-b]indole-3-carboxamide-1,1-dioxide] | 96 | 81 |  |  |  | 0 | 0 | 0 |  |  | 
